# Measurements from patent US7001921B1, “Cell adhesion inhibitors” (Biogen Idec MA Inc., priority 1995, dated 2006).
# Target: T1, VLA4 (Homo sapiens, UniProt P05556+P13612)
# T1 construct: endogenous in cells; host or cells: Ramos cells
# Experiment: Inhibition of VLA4-dependent adhesion to BSA-CS1 (labelled Ramos cells)
# Assay type: cell-based
# Settings: binding of BCECF-AM labelled Ramos cells to CS1 peptide-coated wells, 2 mM MnCl2, 30 minutes at room temperature; IC50 range
# Text: For example, the cell adhesion inhibitory activity of these compounds may be measured by determining the concentration of inhibitor required to block the binding of VLA-4-expressing cells to fibronectin- or CS1-coated plates. In this assay microtiter wells are coated with either fibronectin (containing the CS-1 sequence) or CS-1. If CS-1 is used, it must be conjugated to a carrier protein, such as bovine serum albumin, in order to bind to the wells. Once the wells are coated, varying concentrations of the test compound are then added together with appropriately labelled, VLA-4-expressing cells. Alternatively, the test compound may be added first and allowed to incubate with the coated wells prior to the addition of the cells. The cells are allowed to incubate in the wells for at least 30 minutes. Following incubation, the wells are emptied and washed. Inhibition of binding is measured by quantitating the fluorescence or radioactivity bound to the plate for each of the various concentrations of test compound, as well as for controls containing no test compound.
# VLA-4-expressing cells that may be utilized in this assay include Ramos cells, Jurkat cells, A375 melanoma cells, as well as human peripheral blood lymophocytes (PBLs). The cells used in this assay may be fluorescently or radioactively labelled.
# This assay was used to assess the potency of VLA4-directed inhibitory compounds of this invention.
# We dissolved BSA-SMCC (Pierce Chemical, Rockford, Ill.; Catalog # 77115) in H2O at a concentration of 10 mg/mL. [SEQ ID NO:4]: […](“Cys-Tyr-CS1 peptide”), which we synthesized by conventional solid phase chemistry and purified by HPLC, was dissolved in 10 mM HEPES pH 5, 50 mM NaCl and 0.1 mM EDTA also at a concentration of 10 mg/mL. We then mixed 500 μL of BSA-SMCC, 250 μL of Cys-Tyr-CS1 peptide and 75 μL of […] and allowed the conjugation reaction to proceed for 30 minutes. We stopped the reaction by adding 1 μL of beta-mercaptoethanol. Samples were analyzed for cross-linking by SDS-PAGE. This reaction produced multiple molecules of the Cys-Tyr-CS1 peptide conjugate to each BSA molecule.
# We coated the wells of a Linbro titertek polystyrene 96-well flat bottom plate (Flow Laboratories, Maclean, Va.; catalog #76-231-05) with 100 μL of the above-described BSA-CS1 solution diluted to 1 μg/mL in 0.05 M NaHCO3 (15 mM NaHCO3, 35 mM Na2CO3) pH 9.2. Some wells were not coated with CS1 in order to assess non-specific cell binding (NSB). The plate was then incubated overnight at 4° C.
# Following this incubation, the contents of the wells were removed by inverting and blotting the plate. All of the wells were then blocked with 100 μL of 1% BSA in PBS, 0.02% NaN3, for a minimum of one hour at room temperature.
# 3. Preparation of Fluorescently Labelled Ramos Cells Ramos cells are grown, maintained and labelled in RPMI 1640 culture medium containing 1% BSA. Just prior to running the assay, we added 2′,7′-bis-(2-carboxyethyl)5 (and -6) carboxyfluorescein acetoxymethyl ester (“BCECF-AM”; Molecular Probes Inc., Eugene, Oreg.; catalog #B-1150) to a final concentration of 2 μM to a culture of Ramos cells (4×10^6 cells/mL). We incubated the cells for 20 minutes at 37° C.
# Following labelling, the cells were washed twice in assay buffer (24 mM TRIS, 137 mM NaCl, 2.7 mM KCl, pH 7.4, containing 0.1% BSA and 2 mM glucose) to remove any cations originating from the culture medium. The cells were then resuspended in assay buffer to 4×10^6 cells/mL and 2 mM MnCl2 was added to upregulate VLA4 on the surface of the cells.
# Immediately prior to running the assay, we removed the BSA blocking solution from the 96-well plates and washed the wells with 100 μL of assay buffer. We then added to each well 25 μL of test cell adhesion inhibitory compound at 2× the final concentration and 25 μL of the labelled Ramos cells. Final concentrations were selected across a range of anticipated IC50s, usually between 0.01 nM–10 μM. […]
# T1 sequence (P13612 34-1032): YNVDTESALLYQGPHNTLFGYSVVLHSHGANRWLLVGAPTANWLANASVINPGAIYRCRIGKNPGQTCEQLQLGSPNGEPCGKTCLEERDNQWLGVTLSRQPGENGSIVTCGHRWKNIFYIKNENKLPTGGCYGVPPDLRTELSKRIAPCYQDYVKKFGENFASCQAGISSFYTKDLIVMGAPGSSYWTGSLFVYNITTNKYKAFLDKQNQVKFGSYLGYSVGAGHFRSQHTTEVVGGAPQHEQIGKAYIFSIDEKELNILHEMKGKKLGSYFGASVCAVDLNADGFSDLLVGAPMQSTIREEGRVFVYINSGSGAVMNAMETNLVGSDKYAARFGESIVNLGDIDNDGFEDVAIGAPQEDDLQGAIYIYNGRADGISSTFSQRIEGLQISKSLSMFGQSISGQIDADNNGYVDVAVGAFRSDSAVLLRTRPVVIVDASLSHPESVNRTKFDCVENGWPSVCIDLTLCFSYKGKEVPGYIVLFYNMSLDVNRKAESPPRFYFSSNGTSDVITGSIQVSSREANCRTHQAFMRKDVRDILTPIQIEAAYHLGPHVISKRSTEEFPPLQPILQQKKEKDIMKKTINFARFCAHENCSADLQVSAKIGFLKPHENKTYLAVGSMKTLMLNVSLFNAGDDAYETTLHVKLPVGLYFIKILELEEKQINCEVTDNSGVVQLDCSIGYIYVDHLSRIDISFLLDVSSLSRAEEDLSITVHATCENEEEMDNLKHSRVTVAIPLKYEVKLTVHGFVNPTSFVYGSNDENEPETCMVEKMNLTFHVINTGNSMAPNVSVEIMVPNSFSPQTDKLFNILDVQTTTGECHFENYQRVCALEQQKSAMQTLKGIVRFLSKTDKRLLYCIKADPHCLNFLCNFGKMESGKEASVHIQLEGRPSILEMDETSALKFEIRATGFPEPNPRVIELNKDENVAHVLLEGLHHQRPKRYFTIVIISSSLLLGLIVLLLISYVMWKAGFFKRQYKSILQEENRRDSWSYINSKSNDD
# T1 sequence (P05556 21-798): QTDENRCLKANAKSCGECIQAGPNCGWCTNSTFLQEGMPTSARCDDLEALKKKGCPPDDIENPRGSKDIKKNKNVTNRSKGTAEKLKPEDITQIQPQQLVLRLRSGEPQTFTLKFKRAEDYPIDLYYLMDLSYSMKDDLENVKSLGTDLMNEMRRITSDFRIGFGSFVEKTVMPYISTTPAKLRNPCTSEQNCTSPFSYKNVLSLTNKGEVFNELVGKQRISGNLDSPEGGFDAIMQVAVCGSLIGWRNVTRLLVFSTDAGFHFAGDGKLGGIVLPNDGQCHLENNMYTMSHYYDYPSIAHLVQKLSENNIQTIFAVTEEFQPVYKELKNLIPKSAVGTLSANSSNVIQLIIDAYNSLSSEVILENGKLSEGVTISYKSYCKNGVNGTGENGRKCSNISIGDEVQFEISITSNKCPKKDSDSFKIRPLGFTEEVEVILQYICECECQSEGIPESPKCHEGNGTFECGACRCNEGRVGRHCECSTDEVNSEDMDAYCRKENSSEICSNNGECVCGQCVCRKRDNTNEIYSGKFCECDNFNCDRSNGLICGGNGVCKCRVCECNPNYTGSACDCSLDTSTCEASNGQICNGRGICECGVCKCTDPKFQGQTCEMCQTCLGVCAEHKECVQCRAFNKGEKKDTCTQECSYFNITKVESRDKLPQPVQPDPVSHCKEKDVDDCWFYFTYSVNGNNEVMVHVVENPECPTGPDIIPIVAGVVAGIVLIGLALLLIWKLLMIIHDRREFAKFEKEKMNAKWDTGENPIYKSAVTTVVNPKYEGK
row,IC50 [µM],Compound
1,> 10,CC(C)CC(NC(=O)Cc1ccccn1)C(=O)NC(CC(=O)O)c1ccccc1 (stereo not shown) [compound 1004]
2,> 10,CC(C)CC(NC(=O)Cc1cccnc1)C(=O)NC(CC(=O)O)c1ccccc1 (stereo not shown) [compound 1005]
3,0.05 to 10,CC(C)CC(NC(=O)Cc1ccc(O)cc1)C(=O)NC(CC(=O)O)c1ccc2c(c1)OCO2 (stereo not shown) [compound 1006]
4,> 10,CC(C)CC(NC(=O)Cc1ccncc1)C(=O)NC(CC(=O)O)c1ccccc1 (stereo not shown) [compound 1007]
5,> 10,CC(C)CC(NC(=O)c1ccccc1)C(=O)NC(CC(=O)O)c1ccccc1 (stereo not shown) [compound 1008]
6,> 10,CC(C)CC(NC(=O)Cc1ccc(-c2ccccc2)cc1)C(=O)NC(CC(=O)O)c1ccccc1 (stereo not shown) [compound 1009]
7,0.05 to 10,CC(C)CC(NC(=O)Cc1ccc(Cl)cc1)C(=O)NC(CC(=O)O)c1ccccc1 (stereo not shown) [compound 1010]
8,> 10,CC(C)CC(NC(=O)Cc1ccc(C(F)(F)F)cc1)C(=O)NC(CC(=O)O)c1ccccc1 (stereo not shown) [compound 1011]
9,> 10,CC(C)CC(NC(=O)c1c[nH]c2ccccc12)C(=O)NC(CC(=O)O)c1ccccc1 (stereo not shown) [compound 1014]
10,0.05 to 10,CC(C)CC(NC(=O)Cc1ccc(NC(=O)c2ccccc2)cc1)C(=O)NC(CC(=O)O)c1ccccc1 (stereo not shown) [compound 1015]
11,> 10,CC(C)CC(NC(=O)Cc1ccc(N)cc1)C(=O)NC(CC(=O)O)c1ccccc1 (stereo not shown) [compound 1016]
12,> 10,CC(C)CC(NC(=O)C1(c2ccccc2)CC1)C(=O)NC(CC(=O)O)c1ccccc1 (stereo not shown) [compound 1017]
13,> 10,CC(=O)Nc1cccc(CC(=O)NC(CC(C)C)C(=O)NC(CC(=O)O)c2ccccc2)c1 (stereo not shown) [compound 1018]
14,> 10,CC(C)CC(NC(=O)Cc1cccc(NC(=O)c2ccccc2)c1)C(=O)NC(CC(=O)O)c1ccccc1 (stereo not shown) [compound 1020]
15,0.05 to 10,CC(C)CC(NC(=O)Cc1cccc2ccccc12)C(=O)NC(CC(=O)O)c1ccccc1 (stereo not shown) [compound 1021]
16,> 10,CC(C)CC(NC(=O)Cc1ccc2ccccc2c1)C(=O)NC(CC(=O)O)c1ccccc1 (stereo not shown) [compound 1022]
17,0.05 to 10,CC(C)CC(NC(=O)Cc1ccc(NC(=O)Cc2ccccc2)cc1)C(=O)NC(CC(=O)O)c1ccccc1 (stereo not shown) [compound 1023]
18,> 10,CC(C)CC(NC(=O)Cc1ccccc1N)C(=O)NC(CC(=O)O)c1ccccc1 (stereo not shown) [compound 1024]
19,> 10,CC(C)CC(NC(=O)Cc1ccccc1NC(=O)c1ccccc1)C(=O)NC(CC(=O)O)c1ccccc1 (stereo not shown) [compound 1026]
20,> 10,CC(C)CC(NC(=O)Cc1ccccc1NC(=O)OCc1ccccc1)C(=O)NC(CC(=O)O)c1ccccc1 (stereo not shown) [compound 1027]
21,0.05 to 10,CC(C)CC(NC(=O)Cc1ccc(NC(=O)c2ccccc2N)cc1)C(=O)NC(CC(=O)O)c1ccccc1 (stereo not shown) [compound 1028]
22,> 10,CNC(=O)Nc1ccccc1C(=O)Nc1ccc(CC(=O)NC(CC(C)C)C(=O)NC(CC(=O)O)c2ccccc2)cc1 (stereo not shown) [compound 1029]
23,> 10,CC(C)CC(NC(=O)Cc1cccc(N)c1)C(=O)NC(CC(=O)O)c1ccccc1 (stereo not shown) [compound 1030]
24,> 10,CC(C)CC(NC(=O)Cc1cccc(NC(=O)OCc2ccccc2)c1)C(=O)NC(CC(=O)O)c1ccccc1 (stereo not shown) [compound 1031]
25,> 10,CC(C)CC(NC(=O)Cc1cccc(NS(=O)(=O)c2ccccc2)c1)C(=O)NC(CC(=O)O)c1ccccc1 (stereo not shown) [compound 1032]
26,0.05 to 10,CC(C)CC(NC(=O)Cc1ccccc1)C(=O)NC(CC(=O)O)c1ccc2c(c1)CCC2 (stereo not shown) [compound 1036]

row,IC50 [µM],Compound
1,0.05 to 10,O=C(O)CC(NC(=O)C(Cc1nccs1)NC(=O)Cc1ccc(NC(=O)Nc2ccccc2)cc1)c1ccccc1 (stereo not shown) [compound 1037]
2,> 10,CCCC(NC(=O)Cc1ccccc1)C(=O)NC(CC(=O)O)c1ccccc1 (stereo not shown) [compound 1038]
3,0.05 to 10,CCCCC(NC(=O)Cc1ccccc1)C(=O)NC(CC(=O)O)c1ccccc1 (stereo not shown) [compound 1039]
4,0.05 to 10,CCC(C)C(NC(=O)Cc1ccccc1)C(=O)NC(CC(=O)O)c1ccccc1 (stereo not shown) [compound 1040]
5,> 10,O=C(O)CC(NC(=O)C(Cc1ccccc1)NC(=O)Cc1ccccc1)c1ccccc1 (stereo not shown) [compound 1046]
6,< 0.05,CC(C)CC(NC(=O)Cc1ccc(NC(=O)Nc2ccccc2)cc1)C(=O)NC(CC(=O)O)c1ccc2c(c1)OCO2 (stereo not shown) [compound 1050]
7,0.05 to 10,CC(C)CC(NC(=O)CCc1ccc(NC(=O)Nc2ccccc2)cc1)C(=O)NC(CC(=O)O)c1ccccc1 (stereo not shown) [compound 1052]
8,0.05 to 10,CC(C)CC(C(=O)NC(CC(=O)O)c1ccccc1)N(C)C(=O)Cc1ccc(NC(=O)Nc2ccccc2)cc1 (stereo not shown) [compound 1053]
9,0.05 to 10,CC(C)CC(NC(=O)Cc1cccc(NC(=O)Nc2ccccc2)c1)C(=O)NC(CC(=O)O)c1ccccc1 (stereo not shown) [compound 1054]
10,< 0.05,CC(C)CC(C(=O)NC(CC(=O)O)c1ccc2c(c1)OCO2)N(C)C(=O)Cc1ccc(NC(=O)Nc2ccccc2)cc1 (stereo not shown) [compound 1055]
11,< 0.05,COc1cc(CC(=O)NC(CC(C)C)C(=O)NC(CC(=O)O)c2ccc3c(c2)OCO3)ccc1NC(=O)Nc1ccccc1 (stereo not shown) [compound 1056]
12,0.05 to 10,CC(C)CC(NC(=O)Cc1ccc(NC(=O)Nc2ccccc2)cc1)C(=O)NC(CC(=O)O)c1ccccc1 (stereo not shown) [compound 1060]
13,0.05 to 10,CC(C)CC(NC(=O)Cc1ccc(NC(=O)Nc2ccccc2)cc1)C(=O)NC(CC(=O)O)Cc1ccccc1 (stereo not shown) [compound 1063]
14,0.05 to 10,CNC(=O)Nc1ccc(CC(=O)NC(CC(C)C)C(=O)NC(CC(=O)O)c2ccc3c(c2)OCO3)cc1 (stereo not shown) [compound 1064]
15,0.05 to 10,CC(C)CC(NC(=O)Cc1ccc(NC(=O)NC(C)C)cc1)C(=O)NC(CC(=O)O)c1ccc2c(c1)OCO2 (stereo not shown) [compound 1065]
16,0.05 to 10,CC(C)CC(NC(=O)Cc1ccc(NC(=O)NC2CCCCC2)cc1)C(=O)NC(CC(=O)O)c1ccc2c(c1)OCO2 (stereo not shown) [compound 1068]
17,< 0.05,COc1ccccc1C(CC(=O)O)NC(=O)C(CC(C)C)NC(=O)Cc1ccc(NC(=O)Nc2ccccc2)cc1 (stereo not shown) [compound 1069]
18,0.05 to 10,COc1ccccc1C(CC(=O)O)NC(=O)C(CC(C)C)NC(=O)Cc1ccc(O)cc1 (stereo not shown) [compound 1070]
19,< 0.05,COc1cccc(C(CC(=O)O)NC(=O)C(CC(C)C)NC(=O)Cc2ccc(NC(=O)Nc3ccccc3)cc2)c1 (stereo not shown) [compound 1072]
20,0.05 to 10,CC(C)CC(NC(=O)Cc1ccc(NC(=O)OCc2ccccc2)cc1)C(=O)NC(CC(=O)O)c1ccc2c(c1)OCO2 (stereo not shown) [compound 1073]
21,0.05 to 10,CC(C)CC(NC(=O)Cc1ccc(NS(=O)(=O)c2ccccc2)cc1)C(=O)NC(CC(=O)O)c1ccc2c(c1)OCO2 (stereo not shown) [compound 1074]
22,0.05 to 10,CC(C)CC(NC(=O)Cc1ccc(NC(=O)c2ccccc2)cc1)C(=O)NC(CC(=O)O)c1ccc2c(c1)OCO2 (stereo not shown) [compound 1075]
23,0.05 to 10,CCNC(=O)Nc1ccc(CC(=O)NC(CC(C)C)C(=O)NC(CC(=O)O)c2ccc3c(c2)OCO3)cc1 (stereo not shown) [compound 1077]
24,0.05 to 10,COc1cccc(NC(=O)Nc2ccc(CC(=O)NC(CC(C)C)C(=O)NC(CC(=O)O)c3ccc4c(c3)OCO4)cc2)c1 (stereo not shown) [compound 1078]
25,< 0.05,COc1ccccc1NC(=O)Nc1ccc(CC(=O)NC(CC(C)C)C(=O)NC(CC(=O)O)c2ccc3c(c2)OCO3)cc1 (stereo not shown) [compound 1079]
26,0.05 to 10,CC(C)CC(NC(=O)Cc1ccc(NC(=O)Nc2cccnc2)cc1)C(=O)NC(CC(=O)O)c1ccc2c(c1)OCO2 (stereo not shown) [compound 1080]
